Source: publication PMC9924185, “A validated LC–MS/MS method for clinical pharmacokinetics and presumptive phase II metabolic pathways following oral administration of Andrographis paniculata extract” (Scientific Reports, 2023)
Like-named read-outs stand apart in the source and are kept apart here. Each block holds one compound with its values, some of them ahead of it.

Assays:
[1] = Metabolite profiling in urine by LC-QTOF/MS after oral administration of A. paniculata extract; format: in vivo; settings: tentative metabolite in human urine (pooled 0–4 and 4–8 h) after single oral A. paniculata extract
Experimental: For qualitative determination of untargeted compounds, liquid chromatography-quadrupole time-of-flight mass spectrometry (LC-QTOF/MS) was performed on an Agilent 6540 QTOF/MS (Agilent Technologies, USA) equipped with an Agilent 1260 infinity liquid chromatography system. The stationary phase of the chromatographic separation was performed on a 150 mm × 4.6 mm, 5.0 µm Phenomenex Luna C18 column (Phenomenex, USA) using a mobile phase consisting of 0.1% formic acid in water pH 2.5–2.7 (A) and 100% acetonitrile (B) at a constant flow rate of 0.5 mL/min with a controlled oven temperature at 35 °C, (and 10 µL) of injection volume. The elution gradient was started with 30%B, and was increased to 90%B within 20 min, then maintained at 95%B during 25–30 min followed by a post-run for 5 min.
Mass spectrometric analysis was performed using an ESI negative and positive modes with varying collision energies (10, 20, and 40 V) over a mass range of m/z 100–1200 Da. The MS conditions were as follows: capillary voltage = 3500 V; flow rate of drying gas (N2) = 10.0 L/min, 350 °C; nebulizer pressure = 30 psi, fragmentation voltage = 250 V for negative mode and 100 V for positive mode. All acquisition data were analyzed using MassHunter Software B.07.01 and MassHunter Qualitative Analysis Software B.08.00 (Agilent Technologies, USA). To support the metabolite identification, the MS chromatograms were determined by comparing the fragmentation patterns of metabolites and library searches in Mass Hunter, and Human Metabolome Database (HMDB). For sample preparation, pooled urine samples at 0–4 and 4–8 h were prepared using the same extraction process described in the pharmacokinetic study.

[2] = Stability in urine under different storage conditions; format: physicochemical, human
Experimental: (§4) The stability of plasma and urine samples were evaluated at three different QC concentration levels (LQC, MQC and HQC, n = 3 for each level); the conditions were freeze–thaw stability, long-term stability, short-term stability, and post preparative stability in an autosampler. The evaluation of stability under freeze–thaw condition was carried out over five cycles of − 80 °C for at least 12 h of each cycle. Long-term stability was analyzed after storing the samples at − 80 °C. Short-term stability of each analyte, for up to 8 h during processing on the bench at room temperature, was also evaluated. For evaluation of post-preparative stability, the extracted samples were stored at ambient temperature (4 °C) in an autosampler for 24 h. The analyte was considered as a stable sample when the average percentage of accuracy of the QC sample was in the range of 85–115% and the %CV was not over 15%.

[3] = plasma
Experimental: as §4

[4] = Cumulative urine excretion after single oral administration of A. paniculata extract; format: in vivo, human
Experimental: (§1) An aliquot of 50 µL of plasma or urine was placed in a 1.5 mL of polypropylene centrifuge micro-tube. Protein was removed from the sample by adding 200 µL of methanol (containing 50.00 ng/mL of IS). The mixture was vortexed for 10 min and was then centrifuged at 12,000 rpm, 4 °C for 10 min. The supernatant was filtered through a […] PVDF membrane (Chrom Tech) and transferred into a glass insert in a vial before LC‑MS/MS analysis.
(§2) The clinical pharmacokinetic study was designed as an open-labeled, with a single oral dosing, and conducted under a fasting condition. Four healthy subjects were recruited according to the following inclusion criteria: 18—55 years old with a body mass index (BMI) of 18–30 kg/m^2. Study participants were identified as healthy based on laboratory testing and physical examinations. The participants received 3 capsules containing A. paniculata extract (calculated as 60 mg of andrographolide/dose) before breakfast with 240 mL of drinking water. Blood samples, in EDTA tubes, were taken after oral administration at 0, 10, 20, 30, 45 min, and 1, 1.5, 2, 4, 6, 8, 10, 12, 24 h post dose. All blood samples were then centrifuged at 4000 ± 100 rpm, 4 °C for 5 min. Plasma was pipetted and stored in cryotubes at − 80 °C until further analysis. Urine samples were collected during 0–4, 4–8, 8–12, 12–24, 24–32, 32–40 and 40–48 h after dosing and were then kept at − 80 °C before sample extraction.
(§3) Finally, the hydrolysis of glucuronide metabolites in the pharmacokinetic study was performed according to the following process: 50 µL of plasma or urine sample was incubated for 30 min with 50 µL of 1000 U/mL β-glucuronidase in phosphate buffer pH 6.8 (composed of 0.1 M sodium phosphate monobasic and 0.1 M sodium phosphate dibasic) at 37 °C. For the hydrolysis of sulfatase, 50 µL of 100 units/mL of sulfatase in an acetate buffer at pH 5.0 (composed of 0.1 M acetic acid and 0.1 M sodium acetate) was added into 50 µL of sample; the mixture was then incubated at 37 °C for 2 h. The reaction was stopped in all hydrolysis samples with 150 µL of cold methanol, and then protein precipitation was performed prior to LC–MS/MS analysis. However, due to unavailable standard of the conjugated forms (AP-glucuronide and […]). The quantitative analysis of conjugated metabolites was determined after the hydrolysis reaction by enzymatic digestion, and the free form was analyzed without hydrolysis. The conjugated standards of AP-glucuronide or AP-sulfate should be synthesized for determining the exact amount of the glucuronide or sulfate.

[5] = Clinical pharmacokinetics in plasma after single oral administration of A. paniculata extract; format: in vivo, human; settings: for Cmax / AUC(0-t) / Vd/F / Tmax / half-life: human, parent compound in plasma, single oral dose of extract (60 mg andrographolide); for Cmax: healthy subjects n = 4; for Cmax / AUC(0-t) / Vd/F: mean ± SD; for AUC(0-t) / Vd/F / Tmax / half-life: n = 4; for Tmax / half-life: median
Experimental: as §1, §2
Pharmacokinetic parameters were determined by non-compartmental analysis using PK solutions software, version 2.0 (Summit Research Services). The maximum concentration of four targeted compounds (Cmax) and the time to reach maximum concentration (Tmax) were taken directly from the individual plasma concentration versus time profiles. The area under the curve from time zero to the last sampling time (AUC0-t) was estimated using the linear trapezoidal rule. The apparent volume of distribution (Vd/F) and the elimination half-life (t1/2) were determined using non-compartmental analysis.
as §3

[6] = Freeze–thaw stability 5 cycles, 2.50 ng/mL (LQC)
[7] = Freeze–thaw stability 5 cycles, 500.00 ng/mL (MQC)
[8] = Freeze–thaw stability 5 cycles, 900.00 ng/mL (HQC)
[9] = Long term stability 3 months at − 80 °C, 2.50 ng/mL (LQC)
[10] = Long term stability 3 months at − 80 °C, 500.00 ng/mL (MQC)
[11] = Long term stability 3 months at − 80 °C, 900.00 ng/mL (HQC)
[12] = Post preparative stability 24 h at autosampler, 2.50 ng/mL (LQC)
[13] = Post preparative stability 24 h at autosampler, 500.00 ng/mL (MQC)
[14] = Post preparative stability 24 h at autosampler, 900.00 ng/mL (HQC)
[15] = Short term stability 8 h at room temperature, 2.50 ng/mL (LQC)
[16] = Short term stability 8 h at room temperature, 500.00 ng/mL (MQC)
[17] = Short term stability 8 h at room temperature, 900.00 ng/mL (HQC)

Compound: 14-Deoxy-11,12-didehydroandrographolide glucuronide [M2]
- Metabolic Pathway [1]: Glucuronidation

Compound: 14-Deoxyandrographolide glucuronide [M3]
- Metabolic Pathway [1]: Glucuronidation

- %Accuracy [2, 6]: 93.80%
- Measured concentration [2, 6]: 2.35 ± 0.08 ng/mL
- %Accuracy [2, 7]: 92.94%
- Measured concentration [2, 7]: 464.68 ± 10.80 ng/mL
- %Accuracy [2, 8]: 101.12%
- Measured concentration [2, 8]: 910.07 ± 23.86 ng/mL
- %Accuracy [2, 9]: 93.48%
- Measured concentration [2, 9]: 2.34 ± 0.16 ng/mL
- %Accuracy [2, 10]: 89.13%
- Measured concentration [2, 10]: 445.65 ± 10.92 ng/mL
- %Accuracy [2, 11]: 94.77%
- Measured concentration [2, 11]: 852.94 ± 7.53 ng/mL
- %Accuracy [2, 12]: 96.03%
- Measured concentration [2, 12]: 2.40 ± 0.15 ng/mL
- %Accuracy [2, 13]: 89.94%
- Measured concentration [2, 13]: 449.68 ± 2.36 ng/mL
- %Accuracy [2, 14]: 101.81%
- Measured concentration [2, 14]: 916.25 ± 29.10 ng/mL
- %Accuracy [2, 15]: 97.15%
- Measured concentration [2, 15]: 2.43 ± 0.07 ng/mL
- Measured concentration [2, 16]: 461.15 ± 18.24 ng/mL
- %Accuracy [2, 17]: 102.82%
- Measured concentration [2, 17]: 925.37 ± 32.74 ng/mL
- %Accuracy [3, 6]: 99.77%
- Measured concentration [3, 6]: 2.49 ± 0.14 ng/mL
- %Accuracy [3, 7]: 94.01%
- Measured concentration [3, 7]: 470.07 ± 13.89 ng/mL
- %Accuracy [3, 8]: 100.73%
- Measured concentration [3, 8]: 906.60 ± 9.37 ng/mL
- %Accuracy [3, 9]: 93.19%
- Measured concentration [3, 9]: 2.33 ± 0.12 ng/mL
- %Accuracy [3, 10]: 94.65%
- Measured concentration [3, 10]: 473.25 ± 26.27 ng/mL
- %Accuracy [3, 11]: 98.12%
- Measured concentration [3, 11]: 883.06 ± 16.19 ng/mL
- %Accuracy [3, 12]: 102.61%
- Measured concentration [3, 12]: 2.57 ± 0.12 ng/mL
- %Accuracy [3, 13]: 97.12%
- Measured concentration [3, 13]: 485.59 ± 17.11 ng/mL
- %Accuracy [3, 14]: 98.43%
- Measured concentration [3, 14]: 885.84 ± 17.63 ng/mL
- %Accuracy [3, 15]: 98.11%
- Measured concentration [3, 15]: 2.45 ± 0.19 ng/mL
- %Accuracy [3, 16]: 94.85%
- Measured concentration [3, 16]: 474.29 ± 22.98 ng/mL
- %Accuracy [3, 17]: 98.96%
- Measured concentration [3, 17]: 890.60 ± 51.25 ng/mL
- Conjugated metabolites in the urine [4]: negligible
- Route of excretion [4]: primarily excreted renally
- Cmax [5]: 22.4 ± 5.87 ng/mL
- AUC(0-t) [5]: 44.1 ± 7.48 ng·h/mL
- Vd/F [5]: 0.65 ± 0.13 L/kg
- Tmax [5]: 90 min
- half-life [5]: 13.2 min
- Amount detected in plasma ([5]; parent compound, single oral dose of extract): only very small amounts
- Conjugated metabolites in plasma ([5]; single oral dose of extract): negligible
Compound: C=C1CC[C@@H]2[C@](C)(CO[C@@H]3O[C@H](CO)[C@@H](O)[C@H](O)[C@H]3O)CCC[C@@]2(C)[C@@H]1CCC1=CCOC1=O [AP4, neoandrographolide]

- %Accuracy [2, 6]: 95.48%
- Measured concentration [2, 6]: 2.39 ± 0.18 ng/mL
- %Accuracy [2, 7]: 94.03%
- Measured concentration [2, 7]: 470.16 ± 19.65 ng/mL
- %Accuracy [2, 8]: 102.77%
- Measured concentration [2, 8]: 924.91 ± 7.49 ng/mL
- %Accuracy [2, 9]: 93.89%
- Measured concentration [2, 9]: 2.35 ± 0.07 ng/mL
- %Accuracy [2, 10]: 90.88%
- Measured concentration [2, 10]: 454.38 ± 21.26 ng/mL
- %Accuracy [2, 11]: 99.27%
- Measured concentration [2, 11]: 893.39 ± 24.76 ng/mL
- %Accuracy [2, 12]: 96.20%
- Measured concentration [2, 12]: 2.41 ± 0.13 ng/mL
- %Accuracy [2, 13]: 93.94%
- Measured concentration [2, 13]: 469.68 ± 35.58 ng/mL
- %Accuracy [2, 14]: 101.31%
- Measured concentration [2, 14]: 911.80 ± 10.76 ng/mL
- %Accuracy [2, 15]: 95.56%
- Measured concentration [2, 15]: 2.39 ± 0.15 ng/mL
- %Accuracy [2, 16]: 91.90%
- Measured concentration [2, 16]: 459.52 ± 16.67 ng/mL
- %Accuracy [2, 17]: 102.42%
- Measured concentration [2, 17]: 921.74 ± 21.18 ng/mL
- %Accuracy [3, 6]: 96.87%
- Measured concentration [3, 6]: 2.42 ± 0.04 ng/mL
- %Accuracy [3, 7]: 94.79%
- Measured concentration [3, 7]: 473.93 ± 25.58 ng/mL
- %Accuracy [3, 8]: 98.93%
- Measured concentration [3, 8]: 890.41 ± 25.49 ng/mL
- %Accuracy [3, 9]: 88.89%
- Measured concentration [3, 9]: 2.22 ± 0.09 ng/mL
- %Accuracy [3, 10]: 92.43%
- Measured concentration [3, 10]: 462.16 ± 14.34 ng/mL
- %Accuracy [3, 11]: 98.92%
- Measured concentration [3, 11]: 890.25 ± 20.07 ng/mL
- %Accuracy [3, 12]: 100.85%
- Measured concentration [3, 12]: 2.52 ± 0.08 ng/mL
- %Accuracy [3, 13]: 96.39%
- Measured concentration [3, 13]: 481.96 ± 2.97 ng/mL
- %Accuracy [3, 14]: 101.27%
- Measured concentration [3, 14]: 911.38 ± 18.09 ng/mL
- %Accuracy [3, 15]: 101.65%
- Measured concentration [3, 15]: 2.54 ± 0.21 ng/mL
- %Accuracy [3, 16]: 90.47%
- Measured concentration [3, 16]: 452.37 ± 10.16 ng/mL
- %Accuracy [3, 17]: 100.71%
- Measured concentration [3, 17]: 906.41 ± 47.83 ng/mL
- Route of excretion [4]: primarily excreted renally
- Cmax [5]: 6.33 ± 1.18 ng/mL
- AUC(0-t) [5]: 10.2 ± 2.9 ng·h/mL
- Vd/F [5]: 1.93 ± 1.03 L/kg
- Tmax [5]: 90 min
- half-life [5]: 13.8 min
- AUC of both conjugated metabolites compared to the respective parent compounds ([5]; plasma, single oral dose of extract): greater
Compound: C=C1CC[C@@H]2[C@](C)(CO)[C@H](O)CC[C@@]2(C)[C@@H]1CCC1=CCOC1=O [AP6, 14-deoxyandrographolide]

Compound: Andrographolide glucuronide [M1]
- Metabolic Pathway [1]: Glucuronidation

Compound: Andrographolide sulfate [M4]
- Metabolic Pathway [1]: Sulfation*
